Tests used:
[1] = Safety study: topical application to entire scalp with BP, HR and EKG holter monitoring; assay type: in vivo, human; conditions: topical application across the entire scalp, synephrine at up to 6 g
Protocol: Use of weak acting A1AR agonists or agonists having a low affinity for all other adrenergic receptors, as described herein, can provide methods of treatment and/or prophylaxis that are a substantial improvement over conventional methods of use. Improvements can include enhancements in efficacy and/or safety. For example, safety tests were performed with embodiments of the composition using electrocardiogram (EKG) and blood pressure/heart rate (BP/HR) monitoring. […] Details of the study are described in the examples below.
A study was conducted to determine the safety of a topical solution containing 37% synephrine HCl (the composition of formula 01). 10 mL of the topical solution was applied to the entire scalp and rubbed thoroughly at a base line. An additional 10 mL was applied after 2 hours. Blood pressure (BP), heart rate (HR) and EKG measurements were taken using a wearable holter monitor.
In total, 40 female subjects ages 18-65 in good health were enrolled. 30 of the subjects received the active solution and 10 received the placebo (vehicle only). To evaluate the effect of the composition on systemic hemodynamic parameters, a holter monitor was placed on each subject. At baseline, BP and HR were recorded. BP, HR, and EKG data were collected over a 24-hour period via the holter monitor. […] EKG parameters (e.g., ST segments, arrhythmias, etc.) were normal throughout the 24 hour period.

A1AR [2] = conditions: weak A1AR agonist; Brown 1988; cited from earlier work
A1AR [3] = conditions: Ma 2010, Hibino 2009; cited from earlier work
[4] = oral form; Stohs 2011; cited from earlier work
[5] = system: postjunctional alpha1-adrenoceptors; conditions: Brown 1988; cited from earlier work
[6] = system: postjunctional alpha2-adrenoceptors; conditions: Brown 1988; cited from earlier work

Structure (SMILES)	adverse events (EKG and BP/HR monitoring) [1]	potency less than that of phenylephrine (A1AR [2])	A1AR binding affinity (A1AR [3])	cardiac or hemodynamic changes [4]	potency of the (+) form relative to the (−) form [5]	potency of the (+) form relative to the (−) form [6]
CNCC(O)c1ccc(O)cc1 (stereo not drawn) [synephrine, p-synephrine]	No adverse events	approximately 150 fold	low	not been shown to induce significant cardiac or hemodynamic changes		
CNC[C@@H](O)c1ccc(O)cc1 [S-(+)-synephrine]					one to two orders of magnitude less	one to two orders of magnitude less
